Data reported in paper PMC9697349, “Mouse Pharmacokinetics and In Vitro Metabolism of SH-11037 and SH-11008, Synthetic Homoisoflavonoids for Retinal Neovascularization” (Pharmaceutics, 2022).

Legend:
[1] = format: in vitro ADME; conditions: BNPP 1 mM, 2 h preincubation; SH-11037 1 µM, mouse eye homogenate, 1 min
Method: (§1) Chemical inhibition assay was conducted in mouse, dog, and human plasma and mouse eye homogenate to identify the enzyme(s) involved in the hydrolysis of SH-11037. BW284c51 [16], DTNB [17], EPZ [18], and BNPP [19, 20] were used as selective inhibitors of acetylcholinesterase (AChE), paraoxonase 1 (PON1), butyrylcholinesterase (BchE), and carboxylesterase (CES), respectively. Mouse eyes (male ICR mouse, 8 weeks old) taken immediately after CO2 asphyxiation were homogenized by an electric tissue homogenizer (Tissue Master-125, Omni International, Kennesaw, GA, USA) in an equal amount of 0.1 M potassium phosphate buffer (pH 7.4) on ice. The resulting homogenate was then centrifuged at 3000× g for 20 min. The supernatant was stored at −80 °C until the experiment. DMSO stock solutions of the inhibitors (0.4, 4 and 40 mM) were mixed with plasma diluted 3-fold with 0.1 M phosphate buffer (pH 7.4) to a final volume of 160 μL and final inhibitor concentrations of 0.01, 0.1, and 1 mM. The supernatant of mouse eye homogenate was treated similarly with only BNPP as the inhibitor and a single inhibitor concentration of 1 mM. The resulting pre-incubation solutions were then incubated for 2 h at 37 °C in a shaking water bath. SH-11037 (40 μM) in 50 vol% aqueous CH3CN was mixed with the pre-incubation solutions to a final volume of 160 μL and a final concentration of 1 μM. The resulting solutions were then incubated at 37 °C in a shaking water bath. The incubations were terminated at selected times by adding 160 µL of ice-cold CH3CN containing glipizide (500 ng/mL) as the IS. The resulting mixture was vortexed, sonicated, and centrifuged at 3000× g for 20 min. Aliquots of the supernatant were subjected to LC-MS/MS analysis described below in Section 2.6.2.
(§2) The LC-MS/MS system consisted of Agilent 1290 Infinity HPLC system and Agilent 6530 Accurate-Mass Quadrupole Time-of-Flight (Q-TOF) mass spectrometer equipped with dual AJS ESI ion source (Agilent Technologies Korea, Seoul, Korea). Chromatographic separation was performed on an Agilent Eclipse Plus C18 column (2.1 × 100 mm, 3.5 μm) with a Phenomenex Security Guard C18 guard column (4 × 20 mm) maintained at 40 °C. The mobile phase consisted of 0.1% formic acid in deionized water (A) and 0.1% formic acid in CH3CN (B): 0~2 min 5% B, 2~7 min to 95% B, and 7~10 min 95% B. Total run time including a 5 min equilibration time was 15 min. The flow rate was 0.4 mL/min. The injection volume was 5 µL. The mass spectrometer was operated in a positive Auto MS/MS scan mode with a full scan mass range of m/z 100–1000, fragmentor voltage 150 V, and CE 30 eV, selecting the two most intense precursor ions for collision-induced dissociation. Putative metabolites were identified using Agilent Mass Hunter Metabolite ID software (ver.B.04.00) followed by manual interpretation of the spectral data. Chromatograms and mass spectra were extracted using Agilent Mass Hunter Qualitative Analysis software (ver. B.05.00).

[2] = tested on: hydrolysis of SH-11037 in mouse plasma; format: in vitro ADME; conditions: inhibitor 1 mM; SH-11037 1 µM, mouse plasma, 1 min, 37 °C
Method: as §1, §2

[3] = design: method as in PMID 30713251; conditions: cited from earlier work

SMILES: O=[N+]([O-])c1ccc(OP(=O)(O)Oc2ccc([N+](=O)[O-])cc2)cc1 [BNPP, bis(4-nitrophenyl)phosphate, reference compound]
- effect of inhibitor on SH-11037 hydrolysis [1]: inhibited the hydrolysis nearly completely
- SH-11008 Formation (%) in presence of inhibitor [2]: completely inhibited

SMILES: COc1ccc(CC2COc3cc(O)c(OC)c(O)c3C2=O)cc1O (stereo not shown) [cremastranone, Cremastranone]
- oral absorption [3]: poor
- systemic clearance (CL) [3]: high
